Measured values from patent US20250195521A1 (Revolution Medicines, Inc., priority 2020, published 2025).
Like-named read-outs stand apart in the source and are kept apart here.

Key:
AsPC-1 (K-Ras G12D) = assay: Potency assay: pERK; assay type: cell-based, human; conditions: Homo sapiens, ASPC1; AsPC-1 KRAS G12D; read-out: pERK EC50
Description: The purpose of this assay is to measure the ability of test compounds to inhibit K-Ras in cells. […] This procedure measures a decrease in cellular pERK in response to test compounds. The procedure described below in NCI-H358 cells is applicable to K-Ras G12C.
NCI-H358 cells were grown and maintained using media and procedures recommended by the ATCC. On the day prior to compound addition, cells were plated in 384-well cell culture plates (40 μl/well) and grown overnight in a 37° C., 5% CO2 incubator. Test compounds were prepared in 10, 3-fold dilutions in DMSO, with a high concentration of 10 mM. On the day of assay, 40 nL of test compound was added to each well of cell culture plate using an Echo550 liquid handler (LabCyte®). Concentrations of test compound were tested in duplicate. After compound addition, cells were incubated 4 hours at 37° C., 5% CO2. Following incubation, culture medium was removed and cells were washed once with phosphate buffered saline.
In some experiments, cellular pERK level was determined using the AlphaLISA SureFire Ultra p-ERK1/2 Assay Kit (PerkinElmer). Cells were lysed in 25 μL lysis buffer, with shaking at 600 RPM at room temperature. Lysate (10 μL) was transferred to a 384-well Opti-plate (PerkinElmer) and 5 μL acceptor mix was added. After a 2-hour incubation in the dark, 5 μL donor mix was added, plate was sealed, and incubated 2 hours at room temperature. Signal was read on an Envision plate reader (PerkinElmer) using standard AlphaLISA settings. Analysis of raw data was carried out in Excel (Microsoft) and Prism (GraphPad). Signal was plotted vs. the decadal logarithm of compound concentration, and IC50 was determined by fitting a 4-parameter sigmoidal concentration response model.
In other experiments, cellular pERK was determined by In-Cell Western. Following compound treatment, cells were washed twice with 200 μL tris buffered saline (TBS) and fixed for 15 minutes with 150 μL 4% paraformaldehyde in TBS. Fixed cells were washed 4 times for 5 minutes with TBS containing 0.1% Triton X-100 (TBST) and then blocked with 100 μL Odyssey blocking buffer (LI-COR) for 60 minutes at room temperature. Primary antibody (PERK, CST-4370, Cell Signaling Technology) was diluted 1:200 in blocking buffer, and 50 μL was added to each well and incubated overnight at 4° C. Cells were washed 4 times for 5 minutes with TBST. Secondary antibody (IR-800CW rabbit, LI-COR, diluted 1:800) and DNA stain DRAQ5 (LI-COR, diluted 1:2000) were added and incubated 1-2 hours at room temperature. Cells were washed 4 times for 5 minutes with TBST. Plates were scanned on a Li—COR Odyssey CLx Imager. Analysis of raw data was carried out in Excel (Microsoft) and Prism (GraphPad). Signal was plotted vs. the decadal logarithm of compound concentration, and IC50 was determined by fitting a 4-parameter sigmoidal concentration response model.

[1] = tested on: Capan-1 cells (K-Ras G12V); assay: CellTiter-Glo cell viability, Capan-1; assay type: cell-based, human; conditions: Homo sapiens, CAPAN-1, 120 h, read-out: Capan-1 Cell Viability IC50
Method in brief: (§1)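 Compounds were dispensed directly onto seeded cells and incubated until day 5, then plates were equilibrated at room temperature for about 30 min before CellTiter-Glo luminescence readout. Signals were normalized as (sample/average DMSO)×100 and fitted with a four-parameter logistic model.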

[2] = tested on: NCI-H358 cells (K-Ras G12C); assay: CellTiter-Glo cell viability, NCI-H358; assay type: cell-based, human; conditions: Homo sapiens, NCI-H358, 120 h, read-out: H358 Cell Viability IC50
Method in brief: as §1

KRAS G12D = KRAS G12D (Homo sapiens (Human), UniProt P01116+P62937, G12D); assay: Ras-Raf disruption/FRET/MOA assay (BRAF RBD, Cyclophilin A); assay type: biochemical; conditions: read-out: KRAS G12D FRET IC50
Chain of KRAS G12D (P01116 other isoform, or with tags, fused parts or gaps G12D): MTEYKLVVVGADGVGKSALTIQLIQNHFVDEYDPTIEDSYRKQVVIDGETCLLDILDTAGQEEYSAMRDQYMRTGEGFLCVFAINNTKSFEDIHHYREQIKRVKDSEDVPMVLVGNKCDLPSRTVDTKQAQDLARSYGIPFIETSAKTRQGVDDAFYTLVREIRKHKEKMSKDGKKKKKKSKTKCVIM
Chain of KRAS G12D (P62937 whole entry): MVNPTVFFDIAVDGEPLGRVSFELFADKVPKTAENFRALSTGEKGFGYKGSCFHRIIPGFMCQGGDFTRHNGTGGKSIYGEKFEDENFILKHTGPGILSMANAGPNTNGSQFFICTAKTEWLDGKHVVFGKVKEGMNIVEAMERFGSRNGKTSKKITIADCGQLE
Method in brief: (§2)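 His6-K-Ras-GMPPNP (12.5 nM), GST-BRAF RBD (50 nM) and tagless Cyclophilin A (25 μM) were combined in 25 mM HEPES pH 7.3 with 100 mM NaCl, 5 mM MgCl2, 0.1% BSA and 0.002% Tween20, with compound as a 10-point 3-fold series from 30 μM final, then incubated 3 h at 25° C.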

NRAS WT = NRAS WT (Homo sapiens (Human), UniProt P01111+P62937); assay: as above; assay type: biochemical
Chain of NRAS WT (P01111 whole entry): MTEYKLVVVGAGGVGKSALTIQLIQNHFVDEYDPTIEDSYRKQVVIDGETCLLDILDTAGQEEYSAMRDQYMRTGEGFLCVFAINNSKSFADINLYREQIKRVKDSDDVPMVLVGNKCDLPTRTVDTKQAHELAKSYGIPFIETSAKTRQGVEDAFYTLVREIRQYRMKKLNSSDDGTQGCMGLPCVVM
Chain of NRAS WT (P62937 whole entry): as the sequence (P62937 whole entry) above
Method in brief: (§3)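 TR-FRET readout: anti-His Eu-W1024 (10 nM) and anti-GST allophycocyanin (50 nM) added after 3 h, 25° C compound incubation, then 1.5 h more. Decrease in FRET ratio versus DMSO wells marks Ras:RAF disruption; IC50 reported.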

KRAS Q61H = KRAS Q61H (Homo sapiens (Human), UniProt P01116+P62937, Q61H); assay: as above; assay type: biochemical
Chain of KRAS Q61H (P01116 other isoform, or with tags, fused parts or gaps Q61H): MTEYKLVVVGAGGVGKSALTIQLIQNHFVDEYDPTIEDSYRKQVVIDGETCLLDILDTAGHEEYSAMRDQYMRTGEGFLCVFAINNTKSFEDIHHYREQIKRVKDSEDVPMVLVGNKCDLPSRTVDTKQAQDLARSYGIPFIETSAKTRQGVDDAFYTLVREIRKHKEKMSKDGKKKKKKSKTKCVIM
Chain of KRAS Q61H (P62937 whole entry): as the sequence (P62937 whole entry) above
Method in brief: as §2

KRAS WT = KRAS WT (Homo sapiens (Human), UniProt P01116+P62937); assay: as above; assay type: biochemical; conditions: read-out: KRAS WT FRET data IC50
Chain of KRAS WT (P01116 other isoform, or with tags, fused parts or gaps): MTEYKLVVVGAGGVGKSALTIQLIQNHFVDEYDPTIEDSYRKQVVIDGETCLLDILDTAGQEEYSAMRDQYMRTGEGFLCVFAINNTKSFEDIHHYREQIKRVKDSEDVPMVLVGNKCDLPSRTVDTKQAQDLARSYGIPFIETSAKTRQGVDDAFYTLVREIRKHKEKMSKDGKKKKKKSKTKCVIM
Chain of KRAS WT (P62937 whole entry): as the sequence (P62937 whole entry) above
Method in brief: as §2

NRAS G12C = NRAS G12C (Homo sapiens (Human), UniProt P01111+P62937, G12C); assay: as above; assay type: biochemical; conditions: read-out: NRAS G12C FRET data IC50
Chain of NRAS G12C (P01111 whole entry G12C): as the sequence (P01111 whole entry) above, with G12C counted along it
Chain of NRAS G12C (P62937 whole entry): as the sequence (P62937 whole entry) above
Method in brief: as §3

KRAS G12C = KRAS G12C (Homo sapiens (Human), UniProt P01116+P62937, G12C); assay: as above; assay type: biochemical; conditions: read-out: KRAS G12C FRET IC50
Chain of KRAS G12C (P01116-2 other isoform, or with tags, fused parts or gaps G12C): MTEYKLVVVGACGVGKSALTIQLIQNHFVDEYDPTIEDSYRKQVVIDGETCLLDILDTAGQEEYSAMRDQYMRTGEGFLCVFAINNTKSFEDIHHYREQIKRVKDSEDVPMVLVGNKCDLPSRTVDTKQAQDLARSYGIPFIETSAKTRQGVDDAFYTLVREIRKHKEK
Chain of KRAS G12C (P62937 whole entry): as the sequence (P62937 whole entry) above
Method in brief: as §2

KRAS G13C = KRAS G13C (Homo sapiens (Human), UniProt P01116+P62937, G13C); assay: as above; assay type: biochemical; conditions: read-out: KRAS G13C FRET IC50
Chain of KRAS G13C (P01116 other isoform, or with tags, fused parts or gaps G13C): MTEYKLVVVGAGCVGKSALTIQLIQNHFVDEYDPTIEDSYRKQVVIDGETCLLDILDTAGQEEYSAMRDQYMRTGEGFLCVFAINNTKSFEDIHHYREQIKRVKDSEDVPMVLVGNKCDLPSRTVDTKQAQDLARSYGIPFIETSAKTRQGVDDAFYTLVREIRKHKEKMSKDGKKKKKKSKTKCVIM
Chain of KRAS G13C (P62937 whole entry): as the sequence (P62937 whole entry) above
Method in brief: as §2

KRAS G12V = KRAS G12V (Homo sapiens (Human), UniProt P01116+P62937, G12V); assay: as above; assay type: biochemical; conditions: read-out: KRAS G12V FRET IC50
Chain of KRAS G12V (P01116 other isoform, or with tags, fused parts or gaps G12V): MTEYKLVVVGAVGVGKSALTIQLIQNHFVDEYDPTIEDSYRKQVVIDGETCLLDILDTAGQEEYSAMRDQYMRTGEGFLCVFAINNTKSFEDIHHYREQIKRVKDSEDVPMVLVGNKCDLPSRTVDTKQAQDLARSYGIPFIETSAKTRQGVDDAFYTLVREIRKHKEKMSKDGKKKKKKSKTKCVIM
Chain of KRAS G12V (P62937 whole entry): as the sequence (P62937 whole entry) above
Method in brief: as §2

NRAS Q61R = NRAS Q61R (Homo sapiens (Human), UniProt P01111+P62937, Q61R); assay: as above; assay type: biochemical
Chain of NRAS Q61R (P01111 whole entry Q61R): as the sequence (P01111 whole entry) above, with Q61R counted along it
Chain of NRAS Q61R (P62937 whole entry): as the sequence (P62937 whole entry) above
Method in brief: as §3

KRAS G13D = KRAS G13D (Homo sapiens (Human), UniProt P01116+P62937, G13D); assay: as above; assay type: biochemical; conditions: read-out: KRAS G13D FRET data IC50
Chain of KRAS G13D (P01116 other isoform, or with tags, fused parts or gaps G13D): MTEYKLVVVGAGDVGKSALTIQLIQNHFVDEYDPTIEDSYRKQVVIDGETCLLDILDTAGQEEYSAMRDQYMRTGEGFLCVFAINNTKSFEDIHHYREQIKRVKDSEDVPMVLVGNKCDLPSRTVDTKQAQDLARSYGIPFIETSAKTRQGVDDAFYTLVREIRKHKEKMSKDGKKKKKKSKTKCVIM
Chain of KRAS G13D (P62937 whole entry): as the sequence (P62937 whole entry) above
Method in brief: as §2

KRAS G12S = KRAS G12S (Homo sapiens (Human), UniProt P01116+P62937, G12S); assay: as above; assay type: biochemical; conditions: read-out: KRAS G12S FRET IC50
Chain of KRAS G12S (P01116 other isoform, or with tags, fused parts or gaps G12S): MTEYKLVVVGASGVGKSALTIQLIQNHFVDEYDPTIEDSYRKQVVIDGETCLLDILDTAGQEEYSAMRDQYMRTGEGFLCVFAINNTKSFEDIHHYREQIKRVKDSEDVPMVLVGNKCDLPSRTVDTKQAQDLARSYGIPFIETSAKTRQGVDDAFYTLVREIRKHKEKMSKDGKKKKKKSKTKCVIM
Chain of KRAS G12S (P62937 whole entry): as the sequence (P62937 whole entry) above
Method in brief: as §2

[3] = tested on: K-Ras G12C (NCI-H358 cells); assay: Potency assay: pERK in NCI-H358 cells; assay type: cell-based, human; conditions: Homo sapiens, read-out: pERK EC50 (H358 KRAS G12C)
Method in brief: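 Cells plated the day before were exposed for 4 h at 37° C, 5% CO2 to a 10-point, 3-fold DMSO dilution series (10 mM top stock), in duplicate. Phospho-ERK was read by AlphaLISA SureFire Ultra or by In-Cell Western with DRAQ5 DNA stain, and IC50 came from a 4-parameter sigmoidal fit.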

Row | SMILES | EC50 (AsPC-1 (K-Ras G12D)) | IC50 ([1]; K-Ras G12V, 5-day treatment) | IC50 ([2]; K-Ras G12C, 5-day treatment) | IC50 (KRAS G12D) | IC50 (NRAS WT) | IC50 (KRAS Q61H) | IC50 (KRAS WT) | IC50 (NRAS G12C) | IC50 (KRAS G12C) | IC50 (KRAS G13C) | IC50 (KRAS G12V) | IC50 (NRAS Q61R) | IC50 (KRAS G13D) | IC50 (KRAS G12S) | EC50 ([3]; NCI-H358 cells, 4 hours) | IC50 [1] | IC50 [2] | EC50 ([3]; NCI-H358, 4 h)
1 | CCn1c(-c2cccnc2[C@H](C)OC)c2c3cc(ccc31)-c1cc(O)cc(c1)C[C@H](NC(=O)[C@H](C(C)C)N(C)C(=O)N1CCN(C(=O)[C@@H]3CN3)CC1)C(=O)N1CCC[C@H](N1)C(=O)OCC(C)(C)C2 (atropisomer, axis not shown) [Example 197] | < 5000 nM |  |  |  |  |  |  |  |  |  |  |  |  |  |  |  |  | 
2 | CCn1c(-c2cccnc2[C@H](C)OC)c2c3cc(ccc31)-c1csc(n1)C[C@H](NC(=O)[C@H](C(C)C)N(C)C(=O)N1CC3(CC(N(C)C4COC4)C3)C1)C(=O)N1CCC[C@H](N1)C(=O)OCC(C)(C)C2 [Compound A511] |  | 10 to 100 nM | 10 to 100 nM | 1000 to 10000 nM | 100 to 1000 nM | 100 to 1000 nM | 100 to 1000 nM | 100 to 1000 nM | 100 to 1000 nM | 100 to 1000 nM | 100 to 1000 nM | 100 to 1000 nM | 1000 to 10000 nM | 100 to 1000 nM | < 5000 nM |  |  | 
3 | CCn1c(-c2cccnc2[C@H](C)OC)c2c3cc(ccc31)-c1csc(n1)C[C@H](NC(=O)[C@H](C(C)C)N(C)C(=O)N1C3COCC1C3)C(=O)N1CCC[C@H](N1)C(=O)OCC(C)(C)C2 [Compound A540] |  |  |  | 1000 to 10000 nM | 100 to 1000 nM | 10 to 100 nM | 100 to 1000 nM | 10 to 100 nM | 10 to 100 nM | 100 to 1000 nM | 100 to 1000 nM | 100 to 1000 nM | 100 to 1000 nM | 100 to 1000 nM |  | 10 to 100 nM | 10 to 100 nM | < 5000 nM
4 | CCn1c(-c2cccnc2[C@H](C)OC)c2c3cc(ccc31)-c1csc(n1)C[C@H](NC(=O)[C@H](C(C)C)N(C)C(=O)N1C[C@H](N)[C@@H](O)C1)C(=O)N1CCC[C@H](N1)C(=O)OCC(C)(C)C2 [Compound A581] |  | 1000 to 10000 nM | 100 to 1000 nM | 100 to 1000 nM | 100 to 1000 nM | 10 to 100 nM | 100 to 1000 nM | 10 to 100 nM | 10 to 100 nM | 100 to 1000 nM | 100 to 1000 nM | 100 to 1000 nM | 100 to 1000 nM | 100 to 1000 nM | < 5000 nM |  |  | 
5 | CCn1c(-c2cccnc2[C@H](C)OC)c2c3cc(ccc31)-c1csc(n1)C[C@H](NC(=O)[C@H](C(C)C)N(C)C(=O)N1CCO[C@H](c3ccccc3)C1)C(=O)N1CCC[C@H](N1)C(=O)OCC(C)(C)C2 [Compound A582] |  | 100 to 1000 nM | 10 to 100 nM | 100 to 1000 nM | 100 to 1000 nM | 10 to 100 nM | 100 to 1000 nM | 10 to 100 nM | 10 to 100 nM | 100 to 1000 nM | 100 to 1000 nM | 100 to 1000 nM | 100 to 1000 nM | 100 to 1000 nM | < 5000 nM |  |  | 
